Laboratory results: US4220755A, “Fortimicin B derivatives and process for production thereof” (Abbott Laboratories, priority 1976, dated 1980)
Values after ≈ are worked out from the molar mass of the structure shown. Where two headings read alike, the source gives them in different places.

What was measured:
[1] = tested on: Pseudomonas aeruginosa BMH# 1; assay: MIC, agar dilution method, pH 7.2; assay type: cell-based; conditions: pH 7.2; Pseudomonas aeruginosa BMH# 1; read-out: Minimum inhibition concentration (MIC)
Experimental: (§1) Measurement was carried out according to the agar dilution method, using a medium of pH 8.0, or the Japanese Antibiotic Medicament Standard, using a medium of pH 7.2 Units are in mcg/ml.

Shigella sonnei ATCC9290 = assay: MIC, agar dilution method, pH 7.2; assay type: cell-based; conditions: read-out: Minimum inhibition concentration (MIC)
Experimental: as §1

[2] = tested on: Eschericihia coli GN2411-5; assay: MIC, agar dilution method, pH 7.2; assay type: cell-based; conditions: Escherichia coli; pH 7.2; E. coli GN2411-5; read-out: Minimum inhibition concentration (MIC)
Experimental: as §1

Escherichia coli NIHTC-2 = assay: MIC, agar dilution method, pH 7.2; assay type: cell-based; conditions: NIHTC2; pH 7.2; Escherichia coli NIHTC-2; read-out: Minimum inhibition concentration (MIC)
Experimental: as §1

[3] = tested on: Pseudomonas aeruginosa UCLA 4184; assay: MIC, agar dilution method, pH 7.2; assay type: cell-based; conditions: UCLA4184; pH 7.2; Pseudomonas aeruginosa UCLA 4184; read-out: Minimum inhibition concentration (MIC)
Experimental: as §1

[4] = tested on: Staphylococcus aureus Smith (A); assay: MIC, agar dilution method, pH 7.2; assay type: cell-based; conditions: pH 7.2; Staphylococcus aureus Smith (A); read-out: Minimum inhibition concentration (MIC)
Experimental: as §1

[5] = tested on: Staphylococcus aureus 209-P; assay: MIC, agar dilution method, pH 7.2; assay type: cell-based; conditions: pH 7.2; Staphylococcus aureus 209-P; read-out: Minimum inhibition concentration (MIC)
Experimental: as §1

[6] = tested on: Klebsiella pneumoniae KY4274; assay: MIC, agar dilution method, pH 7.2; assay type: cell-based
Experimental: as §1

[7] = tested on: Salmonella enteritidis G-14; assay: MIC, agar dilution method, pH 7.2; assay type: cell-based; conditions: Salmonella enterica; pH 7.2; Salmonella enteritidis G-14; read-out: Minimum inhibition concentration (MIC)
Experimental: as §1

Proteus vulgaris JJ = assay: MIC, agar dilution method, pH 7.2; assay type: cell-based
Experimental: as §1

Bacillus subtilis KY4273 = assay: MIC, agar dilution method, pH 8.0; assay type: cell-based; conditions: pH 8.0; Bacillus subtilis KY4273; read-out: Minimum inhibition concentration (MIC), BS
Experimental: as §1
B.S.: Bacillus subtilis KY4273

[8] = tested on: Staphylococcus aureus KY4279 ATCC6538P; assay: MIC, agar dilution method, pH 8.0; assay type: cell-based
Experimental: as §1
S.A.: Staphylococcus aureus KY4279 ATCC6538P

[9] = tested on: Escherichia coli R20 KY8349; assay: MIC, agar dilution method, pH 7.2; assay type: cell-based; conditions: R20KY8349, pH 7.2, E. coli R20 KY8349, 5**: neomycin, producing phosphotransferase type I, read-out: Minimum inhibition concentration (MIC)
Experimental: as §1
5: neomycin, producing phosphotransferase type I.

[10] = tested on: Klebsiella pneumoniae 3020 Y-60; assay: MIC, agar dilution method, pH 7.2; assay type: cell-based; conditions: 3020Y60; pH 7.2; Klebsiella pneumoniae 3020 Y-60; 1**: gentamicin, producing adenylsynthetase; read-out: Minimum inhibition concentration (MIC)
Experimental: as §1
(§2) **1: gentamicin, producing adenylsynthetase.

[11] = tested on: Escherichia coli 57R/W677; assay: MIC, agar dilution method, pH 7.2; assay type: cell-based; conditions: 57R/W677, pH 7.2, read-out: Minimum inhibition concentration (MIC)
Experimental: as §1, §2

Escherichia coli 76-2 = assay: MIC, agar dilution method, pH 7.2; assay type: cell-based; conditions: Escherichia coli, 762; pH 7.2; E. coli 76-2; 1**: gentamicin, producing adenylsynthetase; read-out: Minimum inhibition concentration (MIC)
Experimental: as §1, §2

[12] = tested on: Escherichia coli R12 Z-338; assay: MIC, agar dilution method, pH 7.2; assay type: cell-based
Experimental: as §1, §2

[13] = tested on: Pseudomonas aeruginosa R4 KY8511; assay: MIC, agar dilution method, pH 7.2; assay type: cell-based; conditions: R4KY8511, pH 7.2, P. aeruginosa R4 KY8511, 4**: gentamicin, producing acetyltransferase type I, read-out: Minimum inhibition concentration (MIC)
Experimental: as §1
(§3) 4: gentamicin, producing acetyltransferase type I.

[14] = tested on: Escherichia coli R19 KY8348; assay: MIC, agar dilution method, pH 7.2; assay type: cell-based; conditions: R19KY8348, pH 7.2, E. coli R19 KY8348, 4**: gentamicin, producing acetyltransferase type I, read-out: Minimum inhibition concentration (MIC)
Experimental: as §1, §3

[15] = tested on: Shigella sonnei KY4281 ATCC9290; assay: MIC, agar dilution method, pH 8.0; assay type: cell-based
Experimental: as §1

[16] = tested on: Proteus vulgaris KY4277 ATCC6897; assay: MIC, agar dilution method, pH 8.0; assay type: cell-based; conditions: ATCC6897; pH 8.0; Proteus vulgaris KY4277; read-out: Minimum inhibition concentration (MIC), PV
Experimental: as §1

[17] = tested on: Eschericia coli KY4271 ATCC26; assay: MIC, agar dilution method, pH 8.0; assay type: cell-based; conditions: Escherichia coli
Experimental: as §1
E.C.: Eschericia coli KY4271 ATCC26

[18] = tested on: Escherichia coli R18 KY8321; assay: MIC, agar dilution method, pH 7.2; assay type: cell-based; conditions: R18KY8321, E. coli R18 KY8321, 2**: gentamicin, producing adenylsynthetase and neomycin phosphotransferase type II, read-out: Minimum inhibition concentration (MIC)
Experimental: as §1
2: gentamicin, producing adenylsynthetase and neomycin phosphotransferase

[19] = tested on: Pseudomonas aeruginosa R9 KY8516; assay: MIC, agar dilution method, pH 7.2; assay type: cell-based; conditions: R9KY8516, pH 7.2, P. aeruginosa R9 KY8516, 3**: kanamycin, producing acetyltransferase, read-out: Minimum inhibition concentration (MIC)
Experimental: as §1
(§4) 3: kanamycin, producing acetyltransferase.

Serratia marcescens 1065 = assay: MIC, agar dilution method, pH 7.2; assay type: cell-based
Experimental: as §1, §4

[20] = tested on: Escherichia coli R17 Z343; assay: MIC, agar dilution method, pH 7.2; assay type: cell-based; conditions: R17Z343, pH 7.2, E. coli R17 Z343, 3**: kanamycin, producing acetyltransferase, read-out: Minimum inhibition concentration (MIC)
Experimental: as §1, §4

[21] = tested on: Pseudomonas aeruginosa R5 KY8512; assay: MIC, agar dilution method, pH 7.2; assay type: cell-based; conditions: R5KY8512, pH 7.2, P. aeruginosa R5 KY8512, 6**: neomycin, producing phosphotransferase type I and type II, read-out: Minimum inhibition concentration (MIC)
Experimental: as §1
6: neomycin, producing phosphotransferase type I and type II.

Eschericihia coli 3100 = assay: MIC, agar dilution method, pH 7.2; assay type: cell-based, Escherichia coli
Experimental: as §1

Providencia sp 164 = assay: MIC, agar dilution method, pH 7.2; assay type: cell-based; conditions: pH 7.2; Providencia sp 164; 7**: gentamicin, producing acetyltransferase type II; read-out: Minimum inhibition concentration (MIC)
Experimental: as §1
7: gentamicin, producing acetyltransferase type II.

[22] = tested on: Staphylococcus a ureus 226; assay: MIC, agar dilution method, pH 7.2; assay type: cell-based, Staphylococcus aureus; conditions: pH 7.2; Staphylococcus aureus 226; read-out: Minimum inhibition concentration (MIC)
Experimental: as §1

[23] = tested on: Klebsiella pneumoniae KY4275 ATCC10031; assay: MIC, agar dilution method, pH 8.0; assay type: cell-based; conditions: ATCC10031; pH 8.0; Klebsiella pneumoniae KY4275; read-out: Minimum inhibition concentration (MIC), KP
Experimental: as §1
K.P.: Klebsiella pneumoniae KY4275 ATCC10031.

[24] = tested on: Salmonella typhosa KY4278 ATCC9992; assay: MIC, agar dilution method, pH 8.0; assay type: cell-based; conditions: Salmonella enterica, pH 8, read-out: Minimum inhibition concentration (MIC), ST
Experimental: as §1
S.T.: Salmonella typhosa KY4278 ATCC9992

| Structure (SMILES) | MIC [1] [µg/mL] | MIC (Shigella sonnei ATCC9290) [µg/mL] | MIC [2] [µg/mL] | MIC (Escherichia coli NIHTC-2) [µg/mL] | MIC [3] [µg/mL] | MIC [4] [µg/mL] | MIC [5] [µg/mL] | MIC [7] [µg/mL] | MIC (Bacillus subtilis KY4273) [µg/mL] | MIC [9] [µg/mL] | MIC [10] [µg/mL] | MIC [11] [µg/mL] | MIC (Escherichia coli 76-2) [µg/mL] | MIC [13] [µg/mL] | MIC [14] [µg/mL] | MIC [16] [µg/mL] | MIC [18] [µg/mL] | MIC [19] [µg/mL] | MIC [20] [µg/mL] | MIC [21] [µg/mL] | further results |
| --- | --- | --- | --- | --- | --- | --- | --- | --- | --- | --- | --- | --- | --- | --- | --- | --- | --- | --- | --- | --- | --- |
| CO[C@H]1[C@@H](O)[C@H](N)[C@@H](O[C@H]2O[C@H]([C@H](C)N)CC[C@H]2N)[C@H](O)[C@@H]1N(C)C(=O)CO [Compound 4, 4-N-glycolylfortimicin B] | 50 (≈ 123 µM) | 25 (≈ 61.5 µM) | 12.5 (≈ 30.8 µM) | 12.5 (≈ 30.8 µM) | 100 (≈ 246 µM) | 3.12 (≈ 7.68 µM) | 3.12 (≈ 7.68 µM) | 25 (≈ 61.5 µM) | 5 (≈ 12.3 µM) | 12.5 (≈ 30.8 µM) | > 100 | 25 (≈ 61.5 µM) | 6.25 (≈ 15.4 µM) | > 100 | > 100 | 2.5 (≈ 6.15 µM) | 6.25 (≈ 15.4 µM) | 100 (≈ 246 µM) | 6.25 (≈ 15.4 µM) | 50 (≈ 123 µM) | MIC ([6]; pH 7.2, Klebsiella pneumoniae KY4274, read-out: Minimum inhibition concentration (MIC)): 25 µg/mL (≈ 61.5 µM); MIC (Proteus vulgaris JJ; pH 7.2, Proteus vulgaris JJ, read-out: Minimum inhibition concentration (MIC)): 25 µg/mL (≈ 61.5 µM); MIC ([8]; Staphylococcus aureus, pH 8, read-out: Minimum inhibition concentration (MIC), SA): 1.25 µg/mL (≈ 3.08 µM); MIC ([12]; R12Z338, pH 7.2, E. coli R12 Z-338, 1**: gentamicin, producing adenylsynthetase, read-out: Minimum inhibition concentration (MIC)): 25 µg/mL (≈ 61.5 µM); MIC ([15]; ATCC9290, pH 8.0, Shigella sonnei KY4281, read-out: Minimum inhibition concentration (MIC), SS): 5 µg/mL (≈ 12.3 µM); MIC ([17]; ATCC26, pH 8, read-out: Minimum inhibition concentration (MIC), EC): 1.25 µg/mL (≈ 3.08 µM); MIC (Serratia marcescens 1065; pH 7.2, Serratia marcescens 1065, 3**: kanamycin, producing acetyltransferase, read-out: Minimum inhibition concentration (MIC)): 50 µg/mL (≈ 123 µM); MIC (Eschericihia coli 3100; Escherichia coli, pH 7.2, E. coli 3100, read-out: Minimum inhibition concentration (MIC)): 12.5 µg/mL (≈ 30.8 µM); MIC (Providencia sp 164): 100 µg/mL (≈ 246 µM); MIC [22]: 12.5 µg/mL (≈ 30.8 µM); MIC [23]: 5 µg/mL (≈ 12.3 µM); MIC [24]: 1.25 µg/mL (≈ 3.08 µM) |
| CO[C@H]1[C@@H](O)[C@H](N)[C@@H](O[C@H]2O[C@H]([C@H](C)N)CC[C@H]2N)[C@H](O)[C@@H]1N(C)CCN [Compound 15, 4-N-(2-aminoethyl)fortimicin B] | 12.5 (≈ 31.9 µM) | 6.25 (≈ 16 µM) | 3.12 (≈ 7.97 µM) | 3.12 (≈ 7.97 µM) | 12.5 (≈ 31.9 µM) | 0.78 (≈ 1.99 µM) | 0.78 (≈ 1.99 µM) | 25 (≈ 63.9 µM) | 0.16 (≈ 0.409 µM) | 3.12 (≈ 7.97 µM) | 50 (≈ 128 µM) | 12.5 (≈ 31.9 µM) | 3.12 (≈ 7.97 µM) | > 100 | > 100 | 0.64 (≈ 1.63 µM) | 3.12 (≈ 7.97 µM) | 25 (≈ 63.9 µM) | 0.78 (≈ 1.99 µM) | 12.5 (≈ 31.9 µM) | MIC ([6]; Klebsiella pneumoniae, KY4274, pH 7.2, read-out: Minimum inhibition concentration (MIC)): 6.25 µg/mL (≈ 16 µM); MIC (Proteus vulgaris JJ; Proteus vulgaris, pH 7.2, read-out: Minimum inhibition concentration (MIC)): 6.25 µg/mL (≈ 16 µM); MIC ([8]; pH 8.0, Staphylococcus aureus KY4279, read-out: Minimum inhibition concentration (MIC), SA): 0.16 µg/mL (≈ 0.409 µM); MIC ([12]; R12Z338, pH 7.2, read-out: Minimum inhibition concentration (MIC)): 6.25 µg/mL (≈ 16 µM); MIC ([15]; Shigella sonnei, ATCC9290, pH 8, read-out: Minimum inhibition concentration (MIC), SS): 1.25 µg/mL (≈ 3.19 µM); MIC ([17]; ATCC26, pH 8.0, E. coli KY4271, read-out: Minimum inhibition concentration (MIC), EC): 0.32 µg/mL (≈ 0.817 µM); MIC (Serratia marcescens 1065; Serratia marcescens, 1065, pH 7.2, read-out: Minimum inhibition concentration (MIC)): 6.25 µg/mL (≈ 16 µM); MIC (Eschericihia coli 3100; Escherichia coli, 3100, pH 7.2, read-out: Minimum inhibition concentration (MIC)): 6.25 µg/mL (≈ 16 µM); MIC (Providencia sp 164): 12.5 µg/mL (≈ 31.9 µM); MIC [22]: 0.4 µg/mL (≈ 1.02 µM); MIC [23]: 0.63 µg/mL (≈ 1.61 µM); MIC [24]: 0.32 µg/mL (≈ 0.817 µM) |
